Patent publication US9694027B2, “Pyrazole derivative and use thereof for medical purposes” (KISSEI PHARMACEUTICAL CO. LTD., priority 2012, dated 2017)

Experiments:
[1] = system: rat model of low-fiber diet-induced constipation; assay: Rat model of low-fiber diet-induced constipation (Example 2)
Procedure: Compound 2 was weighed and was dissolved in distilled water at preparation concentrations of 3, 10 and 30 mg/mL as the free drug to prepare test compounds.
0.5% methylcellulose (0.5% MC) was used as a vehicle for preparation of lubiprostone. Lubiprostone was weighed and was suspended in 0.5% MC at preparation concentrations of 1, 3 and 10 mg/mL to prepare control substances.
Magnesium sulfate (MgSO4) (Wako pure chemical) was weighed and was dissolved in distilled water at a preparation concentrations of 200 mg/mL to prepare a positive control substance.
A soluble starch, sucrose and lactose monohydrate were weighed at a rate of 6:3:1 and were dissolved in distilled water which was approximately 80% of the amounts of preparation on heating, and then the mixture was added with distilled water to prepare 0.4 g/mL solution of mixed carbohydrate.
A low-fiber diet was prepared based on the literature (Kakino et al. BMC Complementary and Alternative Medicine 2010, 10: 68).
Rats were fed on the low-fiber diet for 1-2 weeks to induce constipation.
Compound 2 (3 mg/kg, 10 mg/kg or 30 mg/kg as free drug), lubiprostone (1 mg/kg, 3 mg/kg or 10 mg/kg), MgSO4 (2000 mg/kg) or a vehicle (distilled water: Control group 1, 0.5% MC: Control group 2) was administered orally at around 9 a.m. using a 1 mL glass syringe and a stomach tube. Then, 0.4 g/mL solution of mixed carbohydrate was administered orally at 2 mL/body to Control group 1 and the groups administered with Compound 2. Distilled water was administered to the normal feed group.
The sum of the fecal weights at the collection times was set as the fecal weight at 24 hours after the administration.
The statistical analysis was made by testing the uniformity of variance using Bartlett's method, and multiple comparison between Control group 1 and the group administered with Compound 2 or Control group 2 and the group administered with lubiprostone was made using Dunnett's method when variance was uniform respectively, and multiple comparison was made using Steel's method when variance was not uniform. In each case, significance level<5% was considered as significant difference.

healthy adult males = assay: Multiple-dose study in healthy adult males (Example 4); format: in vivo, human
Procedure: Compound 2 at a dose of 2, 5, 10 or 20 mg (free drug equivalent), a placebo, or miglitol at a dose of 50 mg was repetitively administered orally once daily just immediately before breakfast on administration Days 1 and 13, and 3 times daily just immediately before every meal on administration Days 3 to 12 to healthy adult males. For the administration of Compound 2, tablets containing 1, 5 or 10 mg in free drug equivalent were used. The test period was set between administration Day 1 and Day 15. Frequencies of bowel movements were checked during consultation by a doctor, and the adverse events (gastrointestinal disorders) were defined when an abnormal finding (diarrhea or loose stool) was seen based on the stool form and the finding. In this regard, the frequencies of bowel movements in Table 8 show the daily means during fifteen days (time/day).

[2] = system: Loperamide-induced dog constipation model; assay: Loperamide-induced dog constipation model (Example 1); format: in vivo; settings: for Dry fecal weight within 24 hours after the administration / Wet fecal weight within 24 hours after the administration / Frequency of bowel movement within 24 hours after the administration: mean of 10 dogs; for Dry fecal weight within 24 hours after the administration: Control group 1.0, Normal group 47.1; for Wet fecal weight within 24 hours after the administration: Control group 2.8, Normal group 136.2; for Frequency of bowel movement within 24 hours after the administration: observation at 17, 21, 24 hours, Control group 0.2, Normal group 2.1
Procedure: Lubiprostone (TLC Pharma Chem) was weighed and was suspended in 0.5% methylcellulose at preparation concentrations of 0.05 and 0.35 mg/mL to prepare control substances.
Loperamide hydrochloride (Wako pure chemical) was weighed at 0.3, 0.5, 1.0, 2.0, 4.0 or 8.0 mg/kg for each animal and was filled into a gelatin capsule.
Loperamide hydrochloride which was filled into a gelatin capsule was orally administered to dogs (beagle, male, 13-14 months old, 10 dogs, Kitayama-labesu). The dosage was increased from 0.3 mg/kg, and was set at 2.0, 4.0 or 8.0 mg/kg based on the bowel movement condition of each dog.
Tests were performed as a full cross-over trial. More than 5-day washout period was provided between each test, and a recovery of stool form was identified, and then the next test was performed.
A gelatin capsule which was filled with loperamide hydrochloride was administered orally at around 9 a.m. on the first and second days in each test.
The stool form of feces was scored in seven categories based on Bristol Stool Form Scale. The collected feces were dried fully, and then the feces were weighed, and it was set as the dry fecal weight.

With `O=S(=O)([O-])[O-].[Mg+2]` [MgSO4, Magnesium sulfate] the Watery stool ([1]; 2000 mg/kg) was “watery stool was reported”, the “Fecal weight, effect of positive control” value ([1]; 2000 mg/kg oral) was “increase of the fecal weight was also shown” and the “Fecal weight within 24 hours after the administration” value ([1]; 2000 mg/kg oral, positive control, n=4, Control group 1 0.53) was 3.70 g.
In the case of `OCCN1C[C@H](O)[C@@H](O)[C@H](O)[C@H]1CO` [Miglitol, miglitol, reference compound], the “Daily frequency of bowel movement after the administration, Mean” value (healthy adult males; 50 mg, once daily Days 1 and 13, 3 times daily Days 3 to 12, daily mean during fifteen days, 8 subjects, Placebo 1.0) is reported as 1.0 time/day, the “Number of subject with gastrointestinal disorders: Abdominal pain” value (healthy adult males; multiple dose 50 mg, of 8 subjects, Placebo 0) is reported as 0 and the “Number of subject with gastrointestinal disorders: Diarrhea” value (healthy adult males; multiple dose 50 mg, of 8 subjects, Placebo 3) is reported as 2.
`CCCCC(F)(F)[C@@]1(O)CC[C@H]2[C@@H](CC(=O)[C@@H]2CCCCCCC(=O)O)O1` [lubiprostone, Lubiprostone, reference compound] was tested, and the “Wet fecal weight, dry weight and frequency of bowel movements versus Control group” value ([2]; 0.1 mg/kg or more, significance level <5%) was “significantly higher than in Control group”, the “Dry fecal weight within 24 hours after the administration” value ([2]; 0.1 mg/kg oral) was 8.3 g and the “Wet fecal weight within 24 hours after the administration” value ([2]; 0.1 mg/kg oral) was 18.7 g. For the same compound, the “Frequency of bowel movement within 24 hours after the administration” value ([2]; 0.1 mg/kg oral) was 0.9 time, the “Dry fecal weight within 24 hours after the administration” value ([2]; 0.7 mg/kg oral) was 21.5 g and the “Wet fecal weight within 24 hours after the administration” value ([2]; 0.7 mg/kg oral) was 55.4 g. The “Frequency of bowel movement within 24 hours after the administration” value ([2]; 0.7 mg/kg oral) was 1.0 time, the “Increases of loose stool and diarrhea” value ([2]; all doses of this test) was “not observed” and the “Dose dependence of wet fecal weight, dry weight and frequency of bowel movements” value ([2]; within 24 hours after oral administration) was “dose-dependently increased”. The “Fecal weight within 24 hours after the administration” value ([1]; 1 mg/kg oral in 0.5% MC, n=5, Control group 2 0.58) was 0.60 g, the “Fecal weight within 24 hours after the administration” value ([1]; 3 mg/kg oral in 0.5% MC, n=5, Control group 2 0.58) was 0.95 g and the “Fecal weight within 24 hours after the administration” value ([1]; 10 mg/kg oral in 0.5% MC, n=5, Control group 2 0.58) was 1.25 g. For the same compound, the “Fecal weight during 24 hours versus Control group” value ([1]; 10 mg/kg, versus Control group 2, significance level <5%) was “significantly higher than in each Control group” and the “Dose dependence of fecal weight during 24 hours after the administration” value ([1]; oral) was “dose-dependently increased”.
